The test system of data set [1] is monoamine transmitters (NA, DA and 5-HT). The data set is described as follows: In vivo brain microdialysis of monoamines in striatum and frontal cortex. Details: species or system rat. The conditions noted are these: rats; for response vs control in vivo at 50 µmol/kg: Rattus norvegicus, sc. The source says: The microdialysis technique (See, for instance, Collin and Ungerstedt, Microdialysis: user's guide, Carnegie Medicin, Stockholm, 1988) is a well-established technique for measuring extracellular levels of neurotransmitters (Ungerstedt, J Int Med, 1991, 230; 365-73). The microdialysis technique was used to measure the effect of compounds disclosed herein upon the efflux of monoamine transmitters (NA, DA and 5-HT) in striatum and frontal cortex in conscious, freely moving rats.
Male Sprague-Dawley rats weighing 280-320 g were used throughout the experiments. Before the experiment the animals were housed in groups, maximum five animals in each cage, with free access to water and food. The animals were housed at least one week prior to surgery and use in the experiments.
A modified version (Waters et al., J Neural Transm Gen Sect, 1994, 98(1); 39-55) of the I-shaped probe (Santiago and Westerink, N-S Arch Pharmacol, 1990, 342; 407-14) with the AN69 polyacrylonitrile/sodium methyl sulfonate copolymer (HOSPAL; o.d/i.d. 310/220 μm: dialysis membrane (Gambro, Lund, Sweden) was used in the microdialysis experiments. In the dorsal striatum, probes with an exposed length of 3 mm of dialysis membrane were used and in the prefrontal cortex the corresponding length was 2.5 mm. The rats were operated under isoflurane inhalation anesthesia while mounted into a Kopf stereotaxic instrument. Coordinates were calculated relative to bregma; dorsal striatum AP+1.0, ML±2.6, DV 6.2; Pf cortex, AP 15+3.2, ML+1.2, DV −4.08°, according to Paxinos and Watson (New York, Academic Press, 1986; FIG. 8 and FIG. 14). The dialysis probe was positioned in a burr hole under stereotaxic guidance and cemented with phosphatine dental cement (DAB Dental).
The rats were housed individually in cages for 48 h before the dialysis experiments, allowing them to recover from surgery and minimizing the risk of drug interactions with the anesthetics during the following experiments. During this period the rats had free access to food and water.
On the day of the experiment the rats were connected to a micro-perfusion pump via a swivel and were replaced in the cage where they could move freely within its confinements. The perfusion medium was a Ringer's solution containing (in mmol/I): NaCl; 140, CaCl2; 1.2, KCl; 3.0, MgCl2; 1.0 (Moghaddam and Bunney. Neurochem., 1989, 53; 652-4). The pump was set to a perfusion speed of 2 μl/min and 40 μl sample volume were collected every 20 min.
The rats were perfused for at least 40 min before sampling began. Five fractions of each 20 min were collected and the last three were used for the establishment of the baseline. After collection of baseline fractions, the pharmacological challenge to the dialysis experiment started. Test compounds were administrated by injection (s.c.) in a volume of 5 ml/kg, with 0.9% NaCl (saline) as vehicle.
The analytical method were based on two chromatographic separations dedicated for amines or acids. Two chromatographic systems shared a common auto injector with a 10-port valve and two sample loops for simultaneous injection on the two systems.
The acids were separated by reversed phase chromatography while the amines were separated by reversed phase ion pairing chromatography preceded by a reverse phase separation in a column switching configuration. Three separation columns (Luna C18 (2), dp 3 μm, 2 mm i.d., Phenomenex) of different lengths were used. Electrochemical detection was accomplished on glassy carbon electrodes (MF-1000, Bioanalytical Systems, Inc.)
The aqueous mobile phase (0.6 ml/min) for the acid system contained citric acid (40 mM, dipotassium hydrogen phosphate 10 mM, methanol 8-11% (v/v) and EDTA 0.1 mM. Column length was 30 mm and detection potential relative to Ag/AgCl reference was 0.74V. […]

The mark [2] stands for this setting: 16.7 μmol/kg s.c., frontal cortex dialysate, Fumarate Salt.
Where [3] appears, read: 16.7 μmol/kg s.c., striatum dialysate, Fumarate Salt.
The mark [4] stands for this setting: 50 μmol/kg s.c., striatum dialysate.
Where [5] appears, read: 50 μmol/kg s.c., frontal cortex dialysate, read-out: 5-HT FC ± SEM, maximum effect compared to baseline.
Setting [6] is: 50 μmol/kg s.c., frontal cortex dialysate, read-out: DA FC ± SEM, maximum effect compared to baseline.
[7] abbreviates: 50 μmol/kg s.c., striatum dialysate, read-out: 5-HT Stri ± SEM, maximum effect compared to baseline.
Setting [8] is: 50 μmol/kg s.c., striatum dialysate, read-out: DA Stri ± SEM, maximum effect compared to baseline.
Where [9] appears, read: 50 μmol/kg s.c., frontal cortex dialysate, read-out: NA FC ± SEM, maximum effect compared to baseline.

Counter-ions that a name gives are not always drawn. Like-named read-outs stand apart in the source and are kept apart here. Marks after values point to notes of the source that are not given here.

As for `Fc1cc(F)c(C(F)C2CNC2)c(F)c1.O=C(O)C(=O)O` (stereo not drawn) (hydrate or solvate), the melting point – broadly, the temperature of the solid-liquid transition – worked out at 149.6 °C.
Same read-out and setting: for `CCCN1CC(C(F)c2cccc(F)c2F)C1.O=C(O)C(=O)O` (stereo not drawn) (hydrate or solvate) the value was 137.4 °C.
For the compound `CCCN1CC(C(F)c2cc(F)cc(F)c2F)C1.O=C(O)C(=O)O` (stereo not drawn) (hydrate or solvate), the melting point was found to be 159 °C.
`CCN1CC(C(F)c2cc(F)c(F)c(F)c2)C1.O=C(O)C(=O)O` (stereo not drawn) (hydrate or solvate): the melting point came to 129.8 °C.
The same measure, in the same setting: for `Fc1cc(F)c(F)c(C(F)C2CNC2)c1F.O=C(O)C(=O)O` (stereo not drawn) (hydrate or solvate) the value was 181.6 °C.
The same measure, in the same setting: for `CCN1CC(C(F)c2c(F)c(F)cc(F)c2F)C1.O=C(O)C(=O)O` (stereo not drawn) (hydrate or solvate) the value was 145.9 °C.
Take `Fc1cc(F)cc(C(F)C2CNC2)c1.O=C(O)/C=C/C(=O)O` (single isomer, unassigned; (+)) [Example 4, (+)-3-[(3,5-Difluorophenyl)(Fluoro)Methyl]Azetidine Fumarate Salt]: in data set [1] (setting [2]), the “5-HT FC ± SEM, maximum effect compared to baseline” value was 170^a percent of control; the “DA FC ± SEM, maximum effect compared to baseline” value is on record as 226^a percent of control; the “NA FC ± SEM, maximum effect compared to baseline” value is 198^a percent of control. For the same compound, in data set [1] (setting [3]), the “5-HT Stri ± SEM, maximum effect compared to baseline” value was 198^a percent of control; the “DA Stri ± SEM, maximum effect compared to baseline” value was 116^a percent of control; the “NA Stri ± SEM, maximum effect compared to baseline” value is 122^a percent of control.
Turning to `Cl.Fc1ccc(C(F)C2CNC2)cc1F` (stereo not drawn) [Example 5, 3-[(3,4-Difluorophenyl)(Fluoro)Methyl]Azetidine Hydrochloric Acid Salt], the “NA Stri ± SEM, maximum effect compared to baseline” value in data set [1] (setting [4]) is recorded as 480^a percent of control. In addition, the response vs control in vivo at 50 µmol/kg in data set [1] (setting [5]) came to 234%; in data set [1] (setting [6]) it was 330 ± 75%; in data set [1] (setting [7]) it was 435 ± 61%; in data set [1] (setting [8]), 136 ± 4%.
`Fc1cccc(F)c1C(F)C1CNC1` (stereo not drawn) [Example 7, 3-[(2,6-Difluorophenyl)(Fluoro)Methyl]Azetidine Oxalate Salt]: the response vs control in vivo at 50 µmol/kg in data set [1] (setting [5]) is 404 ± 21%; in data set [1] (setting [6]), 860 ± 283%; in data set [1] (setting [9]), 570 ± 6%; in data set [1] (setting [7]), 213%; in data set [1] (setting [8]), 130%.
On to `Fc1ccc(C(F)C2CNC2)c(F)c1` (stereo not drawn) [Example 8, 3-[(2,4-Difluorophenyl)(Fluoro)Methyl]Azetidine Oxalate Salt], for which the response vs control in vivo at 50 µmol/kg came out at 428 ± 118% in data set [1] (setting [5]); 549 ± 163% in data set [1] (setting [6]); 400 ± 28% in data set [1] (setting [9]); 402 ± 12% in data set [1] (setting [7]); 133 ± 15% in data set [1] (setting [8]).
In the case of `Fc1cc(F)c(F)c(C(F)C2CNC2)c1.O=C(O)C(=O)O` (stereo not drawn) [Example 9, 3-[Fluoro(2,3,5-Trifluorophenyl)Methyl]Azetidine Oxalate Salt], the “NA Stri ± SEM, maximum effect compared to baseline” value in data set [1] (setting [4]) was 860^a percent of control. In addition, the response vs control in vivo at 50 µmol/kg in data set [1] (setting [5]) stood at 207 ± 21%; in data set [1] (setting [9]), 840 ± 122%; in data set [1] (setting [7]), 231 ± 106%; in data set [1] (setting [8]) it was 127 ± 13%.
For the compound `Fc1ccc(C(F)C2CNC2)c(F)c1F` (stereo not drawn) [Example 11, 3-[Fluoro(2,3,4-Trifluorophenyl)Methyl]Azetidine Oxalate Salt], the response vs control in vivo at 50 µmol/kg came out at 236% in data set [1] (setting [5]); 263% in data set [1] (setting [6]); 342% in data set [1] (setting [9]); 366% in data set [1] (setting [7]); 85 ± 14% in data set [1] (setting [8]).
Consider `Fc1cc(C(F)C2CNC2)cc(F)c1F` (stereo not drawn) [Example 12, 3-[Fluoro(3,4,5-Trifluorophenyl)Methyl]Azetidine Oxalate Salt], for which the response vs control in vivo at 50 µmol/kg was determined as 322 ± 4% in data set [1] (setting [5]); 252 ± 70% in data set [1] (setting [6]); 214 ± 28% in data set [1] (setting [9]); 359 ± 105% in data set [1] (setting [7]); 131% in data set [1] (setting [8]).
For `CCN1CC(C(F)c2cccc(F)c2F)C1` (stereo not drawn) [Example 16, 3-[(2,3-Difluorophenyl)(Fluoro)Methyl]-1-Ethylazetidine Hydrochloric Acid Salt] the same measures were 197 ± 124%, 229 ± 23%, 272 ± 58%, 313 ± 23% and 139 ± 4%.
`CCN1CC(C(F)c2cc(F)cc(F)c2)C1` (stereo not drawn) [Example 19, 3-[(3,5-Difluorophenyl)(Fluoro)Methyl]-1-Ethylazetidine Oxalate Salt]: the response vs control in vivo at 50 µmol/kg amounted to 212 ± 15% in data set [1] (setting [5]); 399 ± 30% in data set [1] (setting [6]); 354 ± 54% in data set [1] (setting [9]); 170 ± 63% in data set [1] (setting [7]); 144 ± 10% in data set [1] (setting [8]).
As to `CCCN1CC(C(F)c2cc(F)cc(F)c2)C1` (stereo not drawn) [Example 20, 3-[(3,5-Difluorophenyl)(Fluoro)Methyl]-1-Propylazetidine Oxalate Salt], the response vs control in vivo at 50 µmol/kg in data set [1] (setting [5]) was 171%; in data set [1] (setting [6]) it was 362%; in data set [1] (setting [9]), 264%; in data set [1] (setting [7]) it was 145%; in data set [1] (setting [8]), 111%.
Turning to `CCN1CC(C(F)c2cc(F)cc(F)c2F)C1` (stereo not drawn) [Example 22, 1-Ethyl-3-[Fluoro(2,3,5-Trifluorophenyl)Methyl]Azetidine Oxalate Salt], the response vs control in vivo at 50 µmol/kg in data set [1] (setting [5]) was determined as 140%; in data set [1] (setting [6]), 654 ± 212%; in data set [1] (setting [8]), 158%.

The values are drawn from patent publication US10087142B2, “Azetidine derivatives useful as modulators of cortical cathecolaminergic neurotransmission” (Integrative Research Laboratories Sweden AB, priority 2015, dated 2018).
